# Where two headings read alike, the source gives them in different places.
# Key:
# cSSSI = assay: Phase 2 and Phase 3 studies in complicated skin and skin structure infection (cSSSI); format: in vivo, human
# Moraxella catarrhalis = assay: Clinical success at PTE by baseline pathogen, microITT; format: in vivo, human; conditions: N1 = 4 (Compound 1), 1 (Moxifloxacin)
# Haemophilus influenzae = assay: Mouse model of lower respiratory tract infection; format: in vivo; conditions: infection caused by Haemophilus influenzae
# [1] = Intra-pulmonary (ELF, AC/AM by BAL) and plasma PK after multiple iv doses in healthy adult subjects; format: in vivo, human; conditions: for Kp at 0.5 h / Kp at 1 h / Kp at 2 h / Kp at 4 h / Kp at 8 h / Kp at 12 h / Kp at 24 h / AUC / Kp: intravenous, 100 mg; for concentration at 0.5 h: 0.5 h after fifth 100 mg iv dose; for concentration at 1 h: 1 h after fifth 100 mg iv dose; for concentration at 2 h: 2 h after fifth 100 mg iv dose; for concentration at 4 h: 4 h after fifth 100 mg iv dose; for concentration at 8 h: 8 h after fifth 100 mg iv dose; for concentration at 12 h: 12 h after fifth 100 mg iv dose; for concentration at 24 h: 24 h after fifth 100 mg iv dose
# Experimental: Concomitant blood samples were taken to compare tissue with serum antibiotic concentrations. […]
# One standard bronchoscopy was performed for each subject. […] A blood sample was taken at the time of bronschoscopy for plasma urea measurement.
# During the bronchoscopy 4 aliquots of 50 mL each of sterile saline solution were instilled into the right lobe of the lungs, immediately aspirated, and placed on ice. The first bronchioalveolar lavage aliquot instilled (BALX) fraction was prepared and analyzed separately from subsequent instillations. The aspirate from the second through the fourth instillation, once pooled, represented the BAL fraction. An aliquot of BAL was removed and used to determine the cell count and differential cell composition including pulmonary macrophages. The remaining supernatant was centrifuged and the supernatant and cell pellet were immediately frozen pending analysis. An aliquot of the BAL supernatant was frozen separately for urea assay. The amount of test article detected in the cell pellet was normalized by the corresponding fraction of macrophages. Fraction BALX was analyzed in a similar manner, except the cell pellet was not assessed or assayed. A blood sample to determine urea concentration was obtained at the time of the second instillation (±3 minutes). The concentration of test article detected in the BALX and BAL fluid was normalized by the dilution factor with respect to urea levels detected in the BALX and BAL fractions respectively.
# All completed subjects with evaluable plasma PK parameter data were included in the PK data analysis.
# All the biofluid concentrations were expressed in ng/mL. All concentrations below the limit of quantification (BLQ) or missing data were labeled as such in the concentration data listings. Concentrations BLQ were treated as zero in summary statistics for concentration data only. They were not considered for calculation of PK Parameters (with the exception of the predose samples). PK parameters were determined using non-compartmental method(s) using WinNonlin Pro.
# These were obtained from the above plasma PK parameter calculations (AUC0-24 and AUC0-12). The tigecycline concentration information was serve as an internal validation for assay sensitivity purposes.
# The volume of the lung ELF within the BAL fluid was estimated by (ureaBAL/ureaplasma), where ureaBAL and ureaplasma represented the concentrations of urea in the BAL fluid and plasma, respectively.
# AUCELF and AUCAC were determined from pooled pulmonary concentration data and were summarized by treatment group. […] For the tigecycline cohort there were 5 ELF and AC concentrations for each of the 4 timepoints over the 12 hour dosing interval.
# For PK blood collection and processing, all blood samples were taken by either direct venipuncture or an indwelling cannula inserted in a forearm vein (on the arm contralateral to the infusion site) at the timepoints specified in the Study Flowchart. The PK blood sample collected at the bronchoscopy scheduled time was obtained at the time of the second BAL instillation (±3 minutes) from the arm contralateral to the infusion site.
# Blood samples were collected into labeled 4 mL tubes containing sodium heparin. Immediately after the sample was collected, the tube was gently inverted 5 to 8 times to thoroughly mix the anticoagulant and then placed upright in a cryoblock or test tube rack surrounded by ice until centrifugation. Samples were centrifuged at 1500×g (gravity) for 10 minutes at approximately 4° C. within 30 minutes of collection. The resultant plasma was divided into 2 equal aliquots, placed in individual cryovials, and immediately frozen at −70° C. or colder within 1 hour of collection. The tubes were kept frozen at −70° C. or colder pending shipment to the bioanalytical laboratory.
# [2] = Phase 1 multiple oral dose (300, 450, 600 mg) study: plasma PK, healthy adult subjects; conditions: for exposure (dose-normalized AUC0-24) as % of that predicted if perfectly dose-proportional: 300 mg to 600 mg; for AUC(0-t): human, in vivo, po
# [3] = Absolute bioavailability of the tablet formulation (tosylate salt); conditions: phase 3 tablet formulation (tosylate salt), fasting conditions; listed as omadacycline
# Streptococcus pneumoniae = assay: Mouse model of lower respiratory tract infection; format: in vivo; conditions: infection caused by Streptococcus pneumoniae
# [4] = tested on: Haemophilus parainfluenzae; assay: Clinical success at PTE by baseline pathogen, microITT; format: in vivo, human; conditions: N1 = 18 (Compound 1), 17 (Moxifloxacin)
# Mycoplasma pneumoniae = assay: as above; format: in vivo, human; conditions: N1 = 70 (Compound 1), 57 (Moxifloxacin)
# [5] = human, ELF (epithelial lung fluid from BAL) relative to plasma, read-out: ELF to Plasma (Mean, SD)
# [6] = human, alveolar macrophages (AM), read-out: AM concentration (mean ± SD)
# [7] = human, epithelial lining fluid (ELF), read-out: ELF concentration (mean ± SD)
# [8] = human, read-out: AM to Plasma (Mean, SD)
# [9] = human, plasma, read-out: Plasma concentration at time of BAL (mean ± SD)
compound,measurement,setting,value
"CN(C)c1cc(CNCC(C)(C)C)c(O)c2c1C[C@H]1C[C@H]3[C@H](N(C)C)C(O)=C(C(N)=O)C(=O)[C@@]3(O)C(O)=C1C2=O [Compound 1, 9-[(2,2-dimethyl-propylamino)-methyl]-minocycline]",tolerability in cSSSI studies,cSSSI; Phase 2 (219 subjects) and terminated Phase 3 (143 subjects),well-tolerated
same,efficacy in cSSSI studies,cSSSI; versus comparator linezolid,efficacy similar to an established comparator (linezolid)
same,Clinical Success n (%),Moraxella catarrhalis,4 (100.0) n (%)
same,efficacy in mouse model of lower respiratory tract infection,Haemophilus influenzae,effective
same,mean concentration in ELF higher than that in plasma,"[1]; FIG. 1, concentration vs. time profile",at least 40%
same,"maximum concentration (plasma), mean ± SD",[1]; after the fifth 100 mg iv dose,2.26 ± 0.76 µg/mL
same,Kp at 0.5 h,[1]; [5],0.95 ± 0.56
same,Kp at 1 h,[1]; [5],2.72 ± 1.26
same,Kp at 2 h,[1]; [5],1.5 ± 0.61
same,Kp at 4 h,[1]; [5],1.79 ± 0.49
same,Kp at 8 h,[1]; [5],1.07 ± 0.45
same,Kp at 12 h,[1]; [5],1.44 ± 0.57
same,Kp at 24 h,[1]; [5],1.65 ± 0.86
same,AUC,"[1]; human, ELF (epithelial lung fluid from BAL), AUC0-24 based on mean concentration at each BAL sampling time, read-out: ELF AUCmean",17200 ng·h/mL
same,AUC,"[1]; human, ELF (epithelial lung fluid from BAL), AUC0-24 based on median concentration at each BAL sampling time, read-out: ELF AUCmedian",16700 ng·h/mL
same,Kp,"[1]; human, alveolar cells (AC) / plasma, based on AUC0-24 of mean concentrations, read-out: Ratio AC:Plasma (AUCmean)",25.8
same,Kp,"[1]; human, alveolar cells (AC) / plasma, based on AUC0-24 of median concentrations, read-out: Ratio AC:Plasma (AUCmedian)",24.8
same,AUC,"[1]; human, alveolar cells (AC, BAL cell pellet), AUC0-24 based on mean concentration at each BAL sampling time, read-out: AC AUCmean",302000 ng·h/mL
same,AUC,"[1]; human, alveolar cells (AC, BAL cell pellet), AUC0-24 based on median concentration at each BAL sampling time, read-out: AC AUCmedian",292000 ng·h/mL
same,Kp,"[1]; human, alveolar cells (AC, mostly AM) / plasma, FIG. 1, concentration vs. time profile, read-out: mean concentration in AC (mostly AM) higher than that in plasma",~25
same,concentration at 0.5 h,[1]; [6],14300 ± 9300 ng/mL
same,concentration at 1 h,[1]; [6],12800 ± 8480 ng/mL
same,concentration at 2 h,[1]; [6],10800 ± 7590 ng/mL
same,concentration at 4 h,[1]; [6],18000 ± 7170 ng/mL
same,concentration at 8 h,[1]; [6],12300 ± 4700 ng/mL
same,concentration at 12 h,[1]; [6],12300 ± 4610 ng/mL
same,concentration at 24 h,[1]; [6],10400 ± 4040 ng/mL
same,Kp,"[1]; human, epithelial lining fluid (ELF) / plasma, penetration ratio based on AUC0-24 of mean concentrations, read-out: Ratio ELF:Plasma (AUCmean)",1.47
same,Kp,"[1]; human, epithelial lining fluid (ELF) / plasma, penetration ratio based on AUC0-24 of median concentrations, read-out: Ratio ELF:Plasma (AUCmedian)",1.42
same,concentration at 0.5 h,[1]; [7],1730 ± 1010 ng/mL
same,concentration at 1 h,[1]; [7],2250 ± 720 ng/mL
same,concentration at 2 h,[1]; [7],1510 ± 940 ng/mL
same,concentration at 4 h,[1]; [7],950 ± 330 ng/mL
same,concentration at 8 h,[1]; [7],580 ± 190 ng/mL
same,concentration at 12 h,[1]; [7],610 ± 290 ng/mL
same,concentration at 24 h,[1]; [7],410 ± 130 ng/mL
same,Kp at 0.5 h,[1]; [8],8.12 ± 5.95
same,Kp at 1 h,[1]; [8],13.8 ± 7.38
same,Kp at 2 h,[1]; [8],12.3 ± 6.57
same,Kp at 4 h,[1]; [8],34.7 ± 15.1
same,Kp at 8 h,[1]; [8],23.1 ± 11.2
same,Kp at 12 h,[1]; [8],29 ± 8.78
same,Kp at 24 h,[1]; [8],40.3 ± 10.3
same,AUC,"[1]; human, plasma, AUC0-24 based on mean concentration at each BAL sampling time, read-out: Plasma AUCmean",11700 ng·h/mL
same,AUC,"[1]; human, plasma, AUC0-24 based on median concentration at each BAL sampling time, read-out: Plasma AUCmedian",11800 ng·h/mL
same,concentration at 0.5 h,[1]; [9],1800 ± 130 ng/mL
same,concentration at 1 h,[1]; [9],890 ± 190 ng/mL
same,concentration at 2 h,[1]; [9],930 ± 330 ng/mL
same,concentration at 4 h,[1]; [9],590 ± 150 ng/mL
same,concentration at 8 h,[1]; [9],560 ± 120 ng/mL
same,concentration at 12 h,[1]; [9],420 ± 70 ng/mL
same,concentration at 24 h,[1]; [9],270 ± 50 ng/mL
same,Vd,"[1]; human, plasma, after the fifth 100 mg iv dose, read-out: volume of distribution, mean ± SD",165 ± 58 L
same,exposure (dose-normalized AUC0-24) as % of that predicted if perfectly dose-proportional,[2]; Day 1,76%
same,exposure (dose-normalized AUC0-24) as % of that predicted if perfectly dose-proportional,[2]; Day 5,88%
same,Cmax/Dose Geometric LS Means,"[2]; Day 1, 300 mg",2.09 ng/mL/mg
same,Cmax/Dose Geometric LS Means,"[2]; Day 1, 450 mg",1.81 ng/mL/mg
same,Cmax/Dose Geometric LS Means,"[2]; Day 1, 600 mg",1.54 ng/mL/mg
same,Cmax/Dose Geometric LS Means,"[2]; Day 5, 300 mg",2.62 ng/mL/mg
same,Cmax/Dose Geometric LS Means,"[2]; Day 5, 450 mg",2.32 ng/mL/mg
same,Cmax/Dose Geometric LS Means,"[2]; Day 5, 600 mg",2.11 ng/mL/mg
same,systemic exposure on Day 5 higher than on Day 1,[2]; all tested dose levels,~50%
same,AUC(0-t),[2]; 300 mg,9270 ng·h/mL
same,AUC(0-t),[2]; 450 mg,8980 ng·h/mL
same,absolute bioavailability,[3],35%
same,efficacy in mouse model of lower respiratory tract infection,Streptococcus pneumoniae,effective
same,Clinical Success n (%),[4],15 (83.3) n (%)
same,Clinical Success n (%),Mycoplasma pneumoniae,66 (94.3) n (%)
